# Target: bromodomain of SMARCA2 protein (Homo sapiens (Human), UniProt P40337+P51531)
# Assay: SMARCA2 bromodomain ternary binding TR-FRET assay (with VCB)
# Conditions: with saturating VCB (5 μM); read-out: IC50 (SM 2_T) ternary binding potency in SMARCA2 FRET assay
# Text: Recombinant bromodomain of SMARCA2 protein was purchased from Active Motif (Catalog #: 31449). VHL/ElonginB/ElonginC (VCB)N-terminal his6-tagged VHL (“his6” disclosed as SEQ ID NO: 4) (uniprot accession number P40337; M54-D213; […] […] […] (SEQ ID NO: 1)), Elongin B (Q15370; M1-K104; […] […] (SEQ ID NO: 2)), Elongin C (Q15369; M17-C112; […] […] (SEQ ID NO: 3)) complex were co-expressed and the complex was purified by Ni-affinity, TEV protease was then used to remove his6-tagged (SEQ ID NO: 4), and the complex was further purified by size-exclusion chromatography before use.
# The inhibitory activity of compounds was evaluated in vitro using TR-FRET assay with white 384-well low volume microplate (PerkinElmer ProxiPlate Plus), in which the compound competes the same binding site with the ligand, and thus lead to dose-dependent TR-FRET signal reduction. The cooperativity of the compounds for ternary complex formation with E3 ligase was evaluated in the absence or presence of saturating concentrations of VCB. Testing compounds were dissolved in DMSO at […] and tested in 9-dose IC50. The assay mixture was prepared by mixing SMARCA2 (10 nM final), biotinylated probe (25 nM final), and assay buffer or VCB (5 μM) in 1×AlphaLISA Epigenetics Buffer (PerkinElmer AL008F) with 1 mM TCEP. The compounds in DMSO were added to each well in 3-fold serial dilution by dispenser (TECAN D300E) and incubate for 20 minutes at room temperature before addition of detection reagents, Lance Eu W1024 anti-6×His (0.6 nM final, PerkinElmer AD0110) and Streptavidin Surelight APC (6 nM final, PerkinElmer CR130-100). The plate was then sealed and further incubated at 4° C. overnight in dark, and then was read by Envision multimode plate reader (PerkinElmer, 2102-0010). The ratio of florescence signal at 665/620 was used in data analysis. Percentage inhibition was calculated by % inhibition=100×(FDMSO-F)/(FDMSO-FPC), in which FDMSO is DMSO control, and FPC is positive control. IC50 values were determined from dose response curve by fitting the percent inhibition against compound concentration using GraphPad Prism software.
# Sequence of bromodomain of SMARCA2 protein (P51531 whole entry, looked up): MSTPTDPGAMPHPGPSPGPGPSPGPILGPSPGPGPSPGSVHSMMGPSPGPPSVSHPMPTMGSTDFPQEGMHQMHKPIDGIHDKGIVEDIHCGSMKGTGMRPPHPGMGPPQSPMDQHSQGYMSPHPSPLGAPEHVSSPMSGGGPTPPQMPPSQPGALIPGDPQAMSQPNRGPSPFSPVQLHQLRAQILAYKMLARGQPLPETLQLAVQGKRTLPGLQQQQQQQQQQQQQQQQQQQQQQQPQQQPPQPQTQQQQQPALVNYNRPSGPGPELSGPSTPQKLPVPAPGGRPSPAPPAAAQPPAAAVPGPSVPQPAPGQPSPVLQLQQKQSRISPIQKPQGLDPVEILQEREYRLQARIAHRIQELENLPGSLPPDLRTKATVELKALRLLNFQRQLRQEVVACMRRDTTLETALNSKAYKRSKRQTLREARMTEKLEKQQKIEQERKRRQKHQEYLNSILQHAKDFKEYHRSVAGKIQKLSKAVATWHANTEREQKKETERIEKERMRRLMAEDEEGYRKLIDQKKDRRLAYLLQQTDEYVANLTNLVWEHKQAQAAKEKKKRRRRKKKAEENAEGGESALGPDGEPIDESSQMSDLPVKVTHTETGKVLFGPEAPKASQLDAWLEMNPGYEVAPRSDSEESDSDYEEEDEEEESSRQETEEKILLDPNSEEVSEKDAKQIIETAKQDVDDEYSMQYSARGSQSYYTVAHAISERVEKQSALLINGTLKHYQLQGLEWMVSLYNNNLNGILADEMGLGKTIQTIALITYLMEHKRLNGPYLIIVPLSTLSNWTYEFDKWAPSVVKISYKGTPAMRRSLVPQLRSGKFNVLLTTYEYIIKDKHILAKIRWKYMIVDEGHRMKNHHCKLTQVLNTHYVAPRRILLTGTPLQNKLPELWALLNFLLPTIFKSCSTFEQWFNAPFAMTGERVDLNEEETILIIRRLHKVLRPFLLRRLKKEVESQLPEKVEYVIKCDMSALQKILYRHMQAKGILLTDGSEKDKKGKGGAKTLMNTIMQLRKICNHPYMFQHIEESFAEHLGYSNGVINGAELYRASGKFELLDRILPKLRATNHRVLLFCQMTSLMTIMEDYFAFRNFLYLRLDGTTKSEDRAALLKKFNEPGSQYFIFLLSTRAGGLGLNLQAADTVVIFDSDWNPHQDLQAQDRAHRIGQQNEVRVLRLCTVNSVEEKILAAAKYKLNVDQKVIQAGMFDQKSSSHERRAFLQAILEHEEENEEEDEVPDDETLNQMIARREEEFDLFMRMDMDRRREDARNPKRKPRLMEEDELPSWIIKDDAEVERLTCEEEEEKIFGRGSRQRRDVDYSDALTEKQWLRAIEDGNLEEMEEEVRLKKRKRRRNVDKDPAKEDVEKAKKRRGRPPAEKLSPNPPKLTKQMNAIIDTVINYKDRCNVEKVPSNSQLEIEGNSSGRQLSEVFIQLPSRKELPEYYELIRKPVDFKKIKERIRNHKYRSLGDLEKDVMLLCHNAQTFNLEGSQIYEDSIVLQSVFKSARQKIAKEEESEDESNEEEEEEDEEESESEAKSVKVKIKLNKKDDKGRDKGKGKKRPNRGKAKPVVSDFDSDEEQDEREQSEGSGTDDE
# Sequence of bromodomain of SMARCA2 protein (P40337 whole entry, looked up): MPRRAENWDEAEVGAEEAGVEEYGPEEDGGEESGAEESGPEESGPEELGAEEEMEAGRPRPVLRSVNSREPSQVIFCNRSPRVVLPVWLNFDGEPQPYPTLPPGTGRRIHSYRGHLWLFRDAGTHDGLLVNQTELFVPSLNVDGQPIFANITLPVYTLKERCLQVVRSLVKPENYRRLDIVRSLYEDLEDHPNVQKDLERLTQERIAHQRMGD
# Sequence of bromodomain of SMARCA2 protein (Q15370 whole entry partner, looked up): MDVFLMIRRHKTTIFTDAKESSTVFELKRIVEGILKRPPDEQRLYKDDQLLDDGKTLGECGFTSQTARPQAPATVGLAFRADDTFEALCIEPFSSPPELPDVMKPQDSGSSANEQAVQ
# Sequence of bromodomain of SMARCA2 protein (Q15369 whole entry partner, looked up): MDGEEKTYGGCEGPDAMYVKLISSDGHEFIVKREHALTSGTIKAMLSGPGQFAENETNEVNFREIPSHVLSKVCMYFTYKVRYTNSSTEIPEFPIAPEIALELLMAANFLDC
row,IC50 [nM],SMILES
1,< 100,"Cc1ncsc1-c1ccc([C@H](C)NC(=O)[C@@H]2C[C@@H](O)CN2C(=O)[C@@H](NC(=O)CN2CCN3c4cc(-c5ccccc5O)nnc4NCC3C2)C(C)(C)C)cc1 (single isomer, unassigned) [Example 1b]"
2,100 to 1000,"Cc1scnc1-c1ccc(CNC(=O)[C@@H]2C[C@@H](O)CN2C(=O)[C@@H](NC(=O)CN2CCN3c4cc(-c5ccccc5O)nnc4NCC3C2)C(C)(C)C)cc1 (single isomer, unassigned) [Example 2a]"
3,< 100,"Cc1scnc1-c1ccc(CNC(=O)[C@@H]2C[C@@H](O)CN2C(=O)[C@@H](NC(=O)CN2CCN3c4cc(-c5ccccc5O)nnc4NCC3C2)C(C)(C)C)cc1 (single isomer, unassigned) [Example 2b]"

# Source: US20240018158A1, “BRM TARGETING COMPOUNDS AND ASSOCIATED METHODS OF USE” (Prelude Therapeutics Incorporated, priority 2020, published 2024)
